According to the supplement of paper PMC4862054:
Several values for one entry are separate records, joined by “and”; a condition that tells them apart may be missing. Equal values may be shown once.

Experiments:
Conditions in all cases: incubation time: 72 h
DU-4475 [1] = assay: drug sensitivity score (DSS), CellTox Green (DSS (AUC-based score)); higher = stronger drug effect (viability inhibition or cytotoxicity); extreme values may be limits of the assay
Summary of the method: (§1)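 Plates with 384 wells held compound at 5 concentrations in 10-fold steps over a 10,000-fold range specific to each compound. Breast cancer cell lines were added in 20 µl suspension and incubated 72 h, then read for CellTox Green and CellTiter-Glo signals, with each plate normalised to 0.1 % DMSO and a positive kill control. The drug sensitivity score is based on the area under the fitted dose-response curve.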

CAL-120 [2] = assay: as above
Summary of the method: as §1

Hs578T [3] = assay: as above
Summary of the method: as §1

BT-474 [4] = assay: as above
Summary of the method: as §1

CAL-51 [5] = assay: as above
Summary of the method: as §1

HDQ-P1 [6] = assay: as above
Summary of the method: as §1

BT-549 [7] = assay: as above
Summary of the method: as §1

HCC1143 [8] = assay: as above
Summary of the method: as §1

MDA-MB-453 [9] = assay: as above
Summary of the method: as §1

CAL-148 [10] = assay: as above
Summary of the method: as §1

CAL-120 [11] = assay: drug sensitivity score (DSS), CellTiter-Glo (DSS (AUC-based score)); higher = stronger drug effect (viability inhibition or cytotoxicity); extreme values may be limits of the assay
Summary of the method: as §1

DU-4475 [12] = assay: normalised viability (% of control), CellTiter-Blue; higher = more viable cells (about 100 = DMSO control)
Description: (§2)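 DSRT, CellTiter-Blue viability, 72 h incubation. Signal is normalised to DMSO and benzethonium chloride controls. Value is the normalised response at dose 3.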

CAL-85-1 = assay: as above
Description: as §2

MDA-MB-468 = assay: as above
Description: as §2

CAL-120 [13] = assay: as above
Description: as §2

HCC1937 = assay: as above
Description: as §2

Hs578T [14] = assay: as above
Description: as §2

BT-474 [15] = assay: as above
Description: as §2

CAL-51 [16] = assay: as above
Description: as §2

SK-BR-3 = assay: as above
Description: as §2

HDQ-P1 [17] = assay: as above
Description: as §2

BT-549 [18] = assay: as above
Description: as §2

HCC1599 = assay: as above
Description: as §2

MDA-MB-436 = assay: as above
Description: as §2

HCC1143 [19] = assay: as above
Description: as §2

MDA-MB-453 [20] = assay: as above
Description: as §2

MDA-MB-231 = assay: as above
Description: as §2

CAL-148 [21] = assay: as above
Description: as §2

MFM-223 = assay: as above
Description: as §2

Row | SMILES | drug sensitivity score (DU-4475 [1]) | drug sensitivity score (CAL-120 [2]) | drug sensitivity score (BT-474 [4]) | drug sensitivity score (CAL-51 [5]) | drug sensitivity score (HDQ-P1 [6]) | drug sensitivity score (BT-549 [7]) | drug sensitivity score (HCC1143 [8]) | drug sensitivity score (MDA-MB-453 [9]) | drug sensitivity score (CAL-148 [10]) | drug sensitivity score (CAL-120 [11]) | normalised viability (DU-4475 [12]; 10 nM) | normalised viability (CAL-85-1; 10 nM) | normalised viability (MDA-MB-468; 100 nM) | normalised viability (HCC1937; 100 nM) | normalised viability (Hs578T [14]; 100 nM) | normalised viability (BT-474 [15]; 100 nM) | normalised viability (CAL-51 [16]; 10 nM) | normalised viability (SK-BR-3; 100 nM) | normalised viability (HDQ-P1 [17]; 10 nM) | normalised viability (BT-549 [18]; 100 nM) | further results
1 | CNC(=O)c1ccc(N2C(=S)N(c3ccc(C#N)c(C(F)(F)F)c3)C(=O)C2(C)C)cc1F [Enzalutamide] | 0 | 0 | 0 | 0 | 0 | 0 | 0 | 0 | 0 | 0 |  |  |  |  |  |  |  |  |  |  | drug sensitivity score (Hs578T [3]): 0
2 | O=P1(N(CCCl)CCCl)NCCCO1 (stereo not given) [Cyclophosphamide] | 0 | 0 | 0 | 0 | 0 | 0 | 0 | 0 | 0 | 0 |  |  |  |  |  |  |  |  |  |  | normalised viability (DU-4475 [12]; 40 nM): 103%; normalised viability (CAL-85-1; 40 nM): 101%; normalised viability (MDA-MB-468; 400 nM): 109%; normalised viability (CAL-120 [13]; 400 nM): 85.6%; normalised viability (HCC1937; 400 nM): 99.8%; normalised viability (Hs578T [14]; 400 nM): 93%; normalised viability (BT-474 [15]; 400 nM): 118%; normalised viability (CAL-51 [16]; 40 nM): 107%; normalised viability (SK-BR-3; 400 nM): 91.6%; normalised viability (HDQ-P1 [17]; 40 nM): 97.9%; normalised viability (BT-549 [18]; 400 nM): 117%; normalised viability (HCC1599; 400 nM): 109%; normalised viability (MDA-MB-436; 400 nM): 101%; normalised viability (HCC1143 [19]; 400 nM): 90.2%; normalised viability (MDA-MB-453 [20]; 40 nM): 110%; normalised viability (MDA-MB-231; 400 nM): 97.8%; normalised viability (CAL-148 [21]; 40 nM): 103%; normalised viability (MFM-223; 400 nM): 91.1%
3 | NC(=O)c1ccc(I)c([N+](=O)[O-])c1 [Iniparib] | 0 | 0.0859 | 0 | 0.811 | 1.99 | 0 | 1.54 | 0 | 0 | 0 | 101% | 87.6% | 96.7% | 109% | 91.8% | 94.6% | 93% | 72.4% | 108% | 106% | normalised viability (CAL-120 [13]; 100 nM): 105%; normalised viability (HCC1599; 100 nM): 103%; normalised viability (MDA-MB-436; 100 nM): 88.5%; normalised viability (HCC1143 [19]; 100 nM): 86.8%; normalised viability (MDA-MB-453 [20]; 10 nM): 86.2%; normalised viability (MDA-MB-231; 100 nM): 98.8%; normalised viability (CAL-148 [21]; 10 nM): 96.3%; normalised viability (MFM-223; 100 nM): 92.4%
4 | COC(=O)c1ccc2c(c1)NC(=O)/C2=C(\Nc1ccc(N(C)C(=O)CN2CCN(C)CC2)cc1)c1ccccc1 [BIBF 1120] |  |  |  |  |  |  |  |  |  |  | 114% | 99.9% | 111% | 115% | 104% | 130% | 104% | 91.6% | 122% | 111% | normalised viability (CAL-120 [13]; 100 nM): 95.4%; normalised viability (HCC1599; 100 nM): 91.3%; normalised viability (MDA-MB-436; 100 nM): 98.9%; normalised viability (HCC1143 [19]; 100 nM): 88.2%; normalised viability (MDA-MB-453 [20]; 10 nM): 101%; normalised viability (MDA-MB-231; 100 nM): 104%; normalised viability (CAL-148 [21]; 10 nM): 100%; normalised viability (MFM-223; 100 nM): 79.1%
5 | CCn1c(-c2nonc2N)nc2cnc(Oc3cccc(NC(=O)c4ccc(OCCN5CCOCC5)cc4)c3)cc21 | 0 | 0 | 0 | 11.2 | 0 | 0 |  | 0 | 0 | 6.49 |  |  |  |  |  |  |  |  |  |  | drug sensitivity score (Hs578T [3]): 0
6 | CCc1c2c(nc3ccc(OC(=O)N4CCC(N5CCCCC5)CC4)cc13)-c1cc3c(c(=O)n1C2)COC(=O)[C@]3(O)CC [Irinotecan] | 0 | 0.997 | 0 | 10.7 | 0 | 0 | 0 | 0 | 11.8 | 2.72 | 115% and 123% | 90.9% and 99.3% | 102% and 108% | 93.2% and 84.8% | 97.9% and 90.4% | 110% and 106% | 99.2% and 118% | 80.2% and 85.2% | 102% and 126% | 91.5% and 90% | drug sensitivity score (Hs578T [3]): 1.06; normalised viability (MDA-MB-436; 100 nM): 89.2% and 99.7%; normalised viability (HCC1143 [19]; 100 nM): 89.1% and 112%; normalised viability (MDA-MB-453 [20]; 10 nM): 102% and 115%; normalised viability (MDA-MB-231; 100 nM): 90.9% and 103%; normalised viability (CAL-148 [21]; 10 nM): 86% and 102%; normalised viability (MFM-223; 100 nM): 93.8% and 94.5%
7 | Cc1cc(Nc2cc(CN3CCOCC3)c3nc(C)c(Cc4ccc(Cl)cc4F)n3n2)n[nH]1 |  |  |  |  |  |  |  |  |  |  | 99.6% | 91.6% | 103% | 101% | 85.9% | 102% | 95% | 87.1% | 92.8% | 93.5% | normalised viability (CAL-120 [13]; 100 nM): 74.5%; normalised viability (HCC1599; 100 nM): 122%; normalised viability (MDA-MB-436; 100 nM): 108%; normalised viability (HCC1143 [19]; 100 nM): 71.4%; normalised viability (MDA-MB-453 [20]; 10 nM): 91.1%; normalised viability (MDA-MB-231; 100 nM): 102%; normalised viability (CAL-148 [21]; 10 nM): 97.9%; normalised viability (MFM-223; 100 nM): 67.9%
